In the NIST ThermoML archive (doi:10.1016/j.jct.2008.01.025):
± gives the expanded uncertainty stated by the source.

Tests used:
[1] = refractive index (Na D-line) (dimensionless); settings: 298.15 K; 101.33 kPa; Liquid; Standard Abbe refractometry
[2] = 298.15 K, 101.33 kPa, Liquid

| refractive index [1] | mass density [2] [kg/m3] | SMILES | mass density ([2]; Vibrating tube method) [kg/m3] |
| --- | --- | --- | --- |
| 1.38517 ± 0.00036 | 679.466 ± 0.66 | CCCCCCC [heptane] |  |
| 1.43232 ± 0.0004 | 771.15 ± 0.85 | CCCCCCCCCCCCCCCC [hexadecane] |  |
| 1.52581 ± 0.00036 | 1058.5 ± 0.28 | c1ccsc1 [thiophene] |  |
| 1.42011 ± 0.0004 | 745.32 ± 0.91 | CCCCCCCCCCCC [dodecane] |  |

| SMILES | refractive index [1] | mass density [2] [kg/m3] | mass density ([2]; Vibrating tube method) [kg/m3] |
| --- | --- | --- | --- |
| CCCCCCCC[n+]1ccn(C)c1.F[B-](F)(F)F [1-methyl-3-octylimidazolium tetrafluoroborate] | 1.43329 ± 0.00069 |  | 1104.42 ± 2.3 |
